Assay [1] deals with T1, Prostaglandin G/H synthase 1 (Homo sapiens, UniProt P23219). Type of assay: functional.
Assay [2] concerns the target T2, Alpha-1A adrenergic receptor (Homo sapiens, UniProt P35348).
T2 sequence (P35348 whole entry): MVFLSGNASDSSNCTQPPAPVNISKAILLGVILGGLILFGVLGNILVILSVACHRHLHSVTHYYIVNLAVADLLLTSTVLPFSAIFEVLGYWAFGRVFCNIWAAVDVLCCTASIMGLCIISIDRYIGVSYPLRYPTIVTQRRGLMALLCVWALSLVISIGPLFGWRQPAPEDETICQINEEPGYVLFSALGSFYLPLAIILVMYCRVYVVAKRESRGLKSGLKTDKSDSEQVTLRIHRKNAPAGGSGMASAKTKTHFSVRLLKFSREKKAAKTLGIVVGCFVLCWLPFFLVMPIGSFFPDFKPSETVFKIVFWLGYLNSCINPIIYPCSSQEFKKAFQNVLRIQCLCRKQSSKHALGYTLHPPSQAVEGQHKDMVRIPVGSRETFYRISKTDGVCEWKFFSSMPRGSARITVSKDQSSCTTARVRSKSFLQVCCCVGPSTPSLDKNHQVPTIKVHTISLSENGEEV
In kind it is functional, cell-based.

In assay [3] the target is T3, Muscarinic acetylcholine receptor M2 (Homo sapiens, UniProt P08172).
T3 sequence (P08172 whole entry): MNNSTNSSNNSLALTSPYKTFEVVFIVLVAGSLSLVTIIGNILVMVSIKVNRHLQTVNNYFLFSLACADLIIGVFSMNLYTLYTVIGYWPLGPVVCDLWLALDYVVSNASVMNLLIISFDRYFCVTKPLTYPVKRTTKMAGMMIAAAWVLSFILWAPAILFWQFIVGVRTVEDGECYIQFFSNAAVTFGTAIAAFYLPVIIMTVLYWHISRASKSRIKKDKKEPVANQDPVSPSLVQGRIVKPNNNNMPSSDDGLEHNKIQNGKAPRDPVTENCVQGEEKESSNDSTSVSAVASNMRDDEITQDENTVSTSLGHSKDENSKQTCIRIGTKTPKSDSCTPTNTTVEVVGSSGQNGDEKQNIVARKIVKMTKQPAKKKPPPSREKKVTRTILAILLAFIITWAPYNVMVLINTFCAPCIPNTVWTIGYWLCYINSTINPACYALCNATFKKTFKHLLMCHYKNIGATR

Assay [4] concerns the target T2, Alpha-1A adrenergic receptor. Type of assay: functional, cell-based. The source holds these as a separate data set.
Assay [5] addresses cGMP-inhibited 3',5'-cyclic phosphodiesterase 3A (Homo sapiens, UniProt Q14432). Type of assay: functional.
Assay [6] addresses Voltage-gated inwardly rectifying potassium channel KCNH2 (Homo sapiens, UniProt Q12809). In kind it is functional. The settings on record: read-out: AC50.
Assay [7] has as its target 3',5'-cyclic-AMP phosphodiesterase 4A (Homo sapiens, UniProt P27815). Type of assay: functional.
Assay [8] addresses T1, Prostaglandin G/H synthase 1. Type of assay: functional. The source holds these as a separate data set.
The next assay addresses Mu-type opioid receptor (Homo sapiens, UniProt P35372).
In a further assay the target is Histamine H3 receptor (Homo sapiens, UniProt Q9Y5N1).
The target of assay [9] is Sodium-dependent serotonin transporter (Homo sapiens, UniProt P31645).

Each structure is given as a SMILES string.
Note: assay procedure not described here.

Sequence of 3',5'-cyclic-AMP phosphodiesterase 4A (P27815 whole entry): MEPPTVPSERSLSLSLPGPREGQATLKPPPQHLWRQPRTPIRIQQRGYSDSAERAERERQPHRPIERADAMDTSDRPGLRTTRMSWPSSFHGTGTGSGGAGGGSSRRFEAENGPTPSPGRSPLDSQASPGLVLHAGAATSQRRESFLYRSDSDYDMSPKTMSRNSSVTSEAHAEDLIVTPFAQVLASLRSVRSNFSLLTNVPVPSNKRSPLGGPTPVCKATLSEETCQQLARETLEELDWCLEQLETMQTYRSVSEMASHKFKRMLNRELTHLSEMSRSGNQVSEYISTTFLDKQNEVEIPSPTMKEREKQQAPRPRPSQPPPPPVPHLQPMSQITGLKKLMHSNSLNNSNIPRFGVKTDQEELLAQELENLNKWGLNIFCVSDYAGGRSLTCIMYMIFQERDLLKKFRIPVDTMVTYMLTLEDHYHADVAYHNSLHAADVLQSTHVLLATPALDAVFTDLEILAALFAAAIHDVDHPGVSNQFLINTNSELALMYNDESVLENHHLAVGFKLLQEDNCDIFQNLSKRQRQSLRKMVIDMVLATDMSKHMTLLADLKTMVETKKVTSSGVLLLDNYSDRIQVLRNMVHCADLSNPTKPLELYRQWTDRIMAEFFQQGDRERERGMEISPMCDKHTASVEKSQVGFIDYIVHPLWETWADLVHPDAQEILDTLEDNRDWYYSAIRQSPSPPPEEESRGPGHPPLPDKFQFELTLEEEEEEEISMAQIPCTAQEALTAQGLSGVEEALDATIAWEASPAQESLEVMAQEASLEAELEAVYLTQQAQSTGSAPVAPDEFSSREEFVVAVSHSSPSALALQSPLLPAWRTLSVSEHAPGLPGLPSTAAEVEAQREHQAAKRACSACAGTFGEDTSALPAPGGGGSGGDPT
Sequence of Histamine H3 receptor (Q9Y5N1 whole entry): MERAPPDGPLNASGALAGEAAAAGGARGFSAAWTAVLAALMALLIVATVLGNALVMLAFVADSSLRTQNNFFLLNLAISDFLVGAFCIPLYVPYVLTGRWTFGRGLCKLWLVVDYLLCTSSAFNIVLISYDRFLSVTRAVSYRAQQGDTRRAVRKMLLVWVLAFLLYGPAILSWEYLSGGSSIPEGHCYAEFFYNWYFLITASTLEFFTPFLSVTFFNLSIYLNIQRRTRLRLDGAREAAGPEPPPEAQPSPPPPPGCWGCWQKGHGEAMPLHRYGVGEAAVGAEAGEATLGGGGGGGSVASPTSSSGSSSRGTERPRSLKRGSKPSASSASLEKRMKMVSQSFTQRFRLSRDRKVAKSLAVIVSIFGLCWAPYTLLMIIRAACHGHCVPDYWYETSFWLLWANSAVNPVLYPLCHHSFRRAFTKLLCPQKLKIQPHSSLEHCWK
Sequence of cGMP-inhibited 3',5'-cyclic phosphodiesterase 3A (Q14432 whole entry): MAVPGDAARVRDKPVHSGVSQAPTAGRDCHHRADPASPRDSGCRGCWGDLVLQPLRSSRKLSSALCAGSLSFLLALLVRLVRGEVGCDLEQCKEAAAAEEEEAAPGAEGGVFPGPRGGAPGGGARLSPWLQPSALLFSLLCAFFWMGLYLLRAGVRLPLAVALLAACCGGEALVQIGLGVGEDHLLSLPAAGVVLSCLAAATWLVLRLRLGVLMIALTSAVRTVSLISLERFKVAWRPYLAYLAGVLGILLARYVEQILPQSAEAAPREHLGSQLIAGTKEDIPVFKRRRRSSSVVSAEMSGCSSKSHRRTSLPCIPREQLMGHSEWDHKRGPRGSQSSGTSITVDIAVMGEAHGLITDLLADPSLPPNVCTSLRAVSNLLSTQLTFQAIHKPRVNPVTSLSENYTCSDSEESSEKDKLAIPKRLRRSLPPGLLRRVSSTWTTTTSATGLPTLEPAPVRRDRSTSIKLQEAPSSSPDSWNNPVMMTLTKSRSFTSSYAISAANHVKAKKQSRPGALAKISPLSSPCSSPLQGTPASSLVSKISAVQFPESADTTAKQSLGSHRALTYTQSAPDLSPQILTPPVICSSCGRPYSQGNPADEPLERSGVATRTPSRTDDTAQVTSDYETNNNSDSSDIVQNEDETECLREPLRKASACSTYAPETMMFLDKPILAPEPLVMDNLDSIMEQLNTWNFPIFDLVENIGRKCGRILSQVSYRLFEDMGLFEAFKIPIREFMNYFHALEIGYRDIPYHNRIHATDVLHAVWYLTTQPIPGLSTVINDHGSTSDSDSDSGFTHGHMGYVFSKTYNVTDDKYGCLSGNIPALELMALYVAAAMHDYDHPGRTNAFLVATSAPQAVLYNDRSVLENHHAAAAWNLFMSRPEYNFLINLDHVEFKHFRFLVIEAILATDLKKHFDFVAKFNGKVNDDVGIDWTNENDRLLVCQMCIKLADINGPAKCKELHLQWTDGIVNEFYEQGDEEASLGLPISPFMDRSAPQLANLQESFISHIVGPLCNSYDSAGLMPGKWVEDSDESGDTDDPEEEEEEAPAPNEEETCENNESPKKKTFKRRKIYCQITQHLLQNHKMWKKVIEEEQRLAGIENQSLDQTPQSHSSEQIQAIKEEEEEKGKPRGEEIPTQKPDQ
Sequence of Mu-type opioid receptor (P35372 whole entry): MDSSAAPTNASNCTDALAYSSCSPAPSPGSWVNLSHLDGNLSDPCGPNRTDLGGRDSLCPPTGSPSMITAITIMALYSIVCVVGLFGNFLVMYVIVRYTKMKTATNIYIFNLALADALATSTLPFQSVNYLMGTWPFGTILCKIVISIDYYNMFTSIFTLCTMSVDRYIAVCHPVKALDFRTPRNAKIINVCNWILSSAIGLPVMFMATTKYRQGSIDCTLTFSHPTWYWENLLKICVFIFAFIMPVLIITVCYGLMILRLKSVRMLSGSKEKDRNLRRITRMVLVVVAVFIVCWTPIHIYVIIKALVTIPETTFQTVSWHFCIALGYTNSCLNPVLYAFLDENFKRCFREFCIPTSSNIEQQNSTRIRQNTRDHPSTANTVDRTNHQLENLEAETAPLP
T1 sequence (P23219 whole entry): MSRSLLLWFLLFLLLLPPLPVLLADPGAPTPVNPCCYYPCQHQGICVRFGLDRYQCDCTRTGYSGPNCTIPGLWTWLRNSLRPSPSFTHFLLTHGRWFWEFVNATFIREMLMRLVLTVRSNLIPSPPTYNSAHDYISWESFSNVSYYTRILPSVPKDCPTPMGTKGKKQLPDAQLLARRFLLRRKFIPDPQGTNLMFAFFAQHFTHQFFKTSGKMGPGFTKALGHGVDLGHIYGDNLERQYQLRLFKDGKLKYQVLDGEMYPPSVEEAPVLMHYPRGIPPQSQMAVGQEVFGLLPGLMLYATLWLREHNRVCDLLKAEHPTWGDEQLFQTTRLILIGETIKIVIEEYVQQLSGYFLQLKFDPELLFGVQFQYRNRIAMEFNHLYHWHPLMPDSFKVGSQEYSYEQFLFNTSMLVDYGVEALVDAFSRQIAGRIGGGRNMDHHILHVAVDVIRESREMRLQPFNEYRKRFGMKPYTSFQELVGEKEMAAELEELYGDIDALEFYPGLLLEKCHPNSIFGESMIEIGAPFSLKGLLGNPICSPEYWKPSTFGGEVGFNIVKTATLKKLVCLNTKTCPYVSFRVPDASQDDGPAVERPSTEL
Sequence of Voltage-gated inwardly rectifying potassium channel KCNH2 (Q12809 whole entry): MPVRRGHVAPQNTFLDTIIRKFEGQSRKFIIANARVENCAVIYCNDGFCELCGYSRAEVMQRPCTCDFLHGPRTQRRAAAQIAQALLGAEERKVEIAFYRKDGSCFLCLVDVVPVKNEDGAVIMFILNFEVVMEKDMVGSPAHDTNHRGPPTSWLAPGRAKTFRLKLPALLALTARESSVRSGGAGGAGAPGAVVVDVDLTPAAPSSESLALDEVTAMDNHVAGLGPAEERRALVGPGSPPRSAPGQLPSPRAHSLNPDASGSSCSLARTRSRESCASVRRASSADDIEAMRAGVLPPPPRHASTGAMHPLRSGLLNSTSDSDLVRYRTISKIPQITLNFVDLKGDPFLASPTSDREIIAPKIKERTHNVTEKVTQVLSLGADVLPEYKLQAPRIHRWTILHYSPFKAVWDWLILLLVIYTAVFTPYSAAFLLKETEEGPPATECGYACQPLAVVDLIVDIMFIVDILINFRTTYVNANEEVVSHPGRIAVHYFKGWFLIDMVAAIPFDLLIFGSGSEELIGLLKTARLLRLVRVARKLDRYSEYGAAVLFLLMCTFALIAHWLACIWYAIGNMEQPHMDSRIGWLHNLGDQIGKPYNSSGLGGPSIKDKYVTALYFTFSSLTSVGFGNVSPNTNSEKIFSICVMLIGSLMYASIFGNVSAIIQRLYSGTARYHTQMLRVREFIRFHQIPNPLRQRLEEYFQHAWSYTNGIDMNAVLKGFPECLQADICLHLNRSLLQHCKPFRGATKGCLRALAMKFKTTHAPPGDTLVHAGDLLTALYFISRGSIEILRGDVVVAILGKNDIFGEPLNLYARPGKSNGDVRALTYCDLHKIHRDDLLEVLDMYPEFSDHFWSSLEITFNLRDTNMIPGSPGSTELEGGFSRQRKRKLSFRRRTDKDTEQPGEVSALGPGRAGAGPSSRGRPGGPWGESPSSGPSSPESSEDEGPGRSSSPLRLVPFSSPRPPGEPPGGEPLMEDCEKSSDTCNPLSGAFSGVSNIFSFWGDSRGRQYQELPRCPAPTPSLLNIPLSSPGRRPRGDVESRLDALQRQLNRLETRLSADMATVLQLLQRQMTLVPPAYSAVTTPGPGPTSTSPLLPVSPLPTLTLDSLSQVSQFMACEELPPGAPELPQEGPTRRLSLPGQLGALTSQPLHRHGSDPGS

For the compound `O=c1[nH]c(=O)n(C2CCCO2)cc1F` (stereo not drawn) [TEGAFUR], the AC50 in [1], in assay [2], in [3], in [4], in assay [5] and in [6] was greater than 30 µM throughout. In addition, the AC50 (in [7]; in assay [8]; on Mu-type opioid receptor; at Histamine H3 receptor) was greater than 30 µM in each case.
In the case of `CCN1CCCC1CNC(=O)c1cc(S(N)(=O)=O)ccc1OC` (stereo not drawn) [SULPIRIDE], the AC50 – broadly, the concentration giving half of the maximal activity seen – in assay [1] is 11.7 µM; in assay [2] it was greater than 30 µM; in [3], greater than 30 µM; in assay [4], greater than 30 µM; in assay [5] it was greater than 30 µM; in assay [6], greater than 30 µM. Further, the AC50 in assay [7] was greater than 30 µM; in [8] it was 15.8 µM; at Mu-type opioid receptor, greater than 30 µM; on Histamine H3 receptor, greater than 30 µM.
Regarding `COc1cc2c3cc1Oc1cc(ccc1O)C[C@@H]1c4c(cc(OC)c(O)c4Oc4ccc(cc4)C[C@@H]3N(C)CC2)CC[N+]1(C)C` [TUBOCURARINE], the AC50 in assay [1], in assay [2], in [3], in assay [4], in assay [5] and in assay [6] was greater than 30 µM in each case. Moreover, the AC50 was greater than 30 µM in assay [7], greater than 30 µM in [8], 24.1 µM at Mu-type opioid receptor and greater than 30 µM at Histamine H3 receptor.
As to `COc1ccccc1N1CCN(CC(O)COc2cccc3ccccc23)CC1` (stereo not drawn) [NAFTOPIDIL], the AC50 in assay [1] was greater than 30 µM; in [3], greater than 30 µM; in assay [9] it was 1.43 µM; in assay [5], greater than 30 µM; in assay [6], 0.87 µM; in assay [7], greater than 30 µM. Moreover, the AC50 was greater than 30 µM in [8], 0.9 µM at Mu-type opioid receptor and greater than 30 µM at Histamine H3 receptor.
On to `COc1cc([C@@H]2c3cc4c(cc3[C@H](O)[C@H]3COC(=O)[C@H]23)OCO4)cc(OC)c1OC` [PODOFILOX], for which the AC50 in assay [1] is greater than 30 µM; in assay [2], greater than 30 µM; in assay [3], greater than 30 µM; in [4], 6.56 µM; in assay [5], greater than 30 µM; in assay [6] it was greater than 30 µM. In addition, the AC50 in assay [7] is greater than 10 µM; in assay [8] it was greater than 30 µM; on Mu-type opioid receptor it was greater than 30 µM; on Histamine H3 receptor it was greater than 30 µM.
For the compound `O=c1[nH]c(=O)n([C@H]2C[C@H](O)[C@@H](CO)O2)cc1I` [IDOXURIDINE], the half-maximal activity concentration (AC50) in assay [1], in assay [2], in [3], in assay [4], in [5] and in assay [6] was greater than 30 µM each time. Moreover, the AC50 (in assay [7]; in [8]; on Mu-type opioid receptor; on Histamine H3 receptor) was greater than 30 µM throughout.
Regarding `CN(C)CC/C=C1\c2ccccc2CSc2ccccc21` [DOTHIEPIN], the AC50 in [6] is 1.5 µM.
For `CCCC1O[C@@H]2C[C@H]3[C@@H]4CCC5=CC(=O)C=C[C@]5(C)[C@H]4[C@@H](O)C[C@]3(C)[C@]2(C(=O)CO)O1` (stereo partly drawn) [BUDESONIDE], the AC50 in assay [1], in assay [2], in assay [3], in assay [4], in assay [5] and in assay [6] was greater than 30 µM each time. In addition, the AC50 (in assay [7]; in assay [8]; at Mu-type opioid receptor; at Histamine H3 receptor) was greater than 30 µM throughout.
Turning to `CN(C)CCc1c[nH]c2ccc(C[C@H]3COC(=O)N3)cc12` [ZOLMITRIPTAN], the half-maximal activity concentration (AC50) in [6] was greater than 30 µM.
Turning to `CC[C@H]1CN2CCc3cc(OC)c(OC)cc3[C@@H]2C[C@@H]1C[C@H]1NCCc2cc(OC)c(OC)cc21` [EMETINE], the AC50 in assay [1] is greater than 30 µM; in [3], greater than 30 µM; in [5] it was greater than 30 µM; in assay [7], greater than 30 µM; in assay [8], greater than 30 µM; at Mu-type opioid receptor, 5.99 µM. In addition, on Histamine H3 receptor, the half-maximal activity concentration (AC50) was greater than 30 µM.

(Values after ChEMBL document CHEMBL5291721, “A preclinical secondary pharmacology resource illuminates target-adverse drug reaction associations of marketed drugs” (Nat Commun, 2023).)
